By Ki is commonly meant a dissociation constant, usually derived from enzyme kinetics or from competition with a known ligand. Low values mean a stronger hold on the target, high ones a looser hold on the target.

In the experiment the target is Bcl-2 protein (Homo sapiens (Human), UniProt P10415). Kind of experiment: Bcl-2 binding TR-FRET (Time-Resolved Fluorescence-Resonance-Energy-Transfer) assay. Conditions: inhibition constant for binding to Bcl-2 protein. An excerpt: The smaller the Ki value, the greater is the binding affinity.
Bcl-2 protein, sequence (P10415 whole entry): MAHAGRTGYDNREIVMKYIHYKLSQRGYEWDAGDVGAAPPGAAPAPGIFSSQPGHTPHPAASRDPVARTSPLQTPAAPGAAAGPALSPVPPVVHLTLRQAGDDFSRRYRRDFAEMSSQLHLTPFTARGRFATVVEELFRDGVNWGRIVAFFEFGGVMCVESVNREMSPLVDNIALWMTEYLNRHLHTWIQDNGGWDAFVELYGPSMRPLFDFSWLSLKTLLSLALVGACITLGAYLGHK
Molecule `CC1(C)CCC(CN2CCN(c3ccc(C(=O)NS(=O)(=O)c4ccc(NC[C@H]5CCCOC5)c([N+](=O)[O-])c4)c(Oc4cnc5[nH]ccc5c4)c3)CC2)=C(c2ccc(Cl)cc2)C1` [Compound 13, 4-(4-{[2-(4-chlorophenyl)-4,4-dimethylcyclohex-1-en-1-yl]methyl}piperazin-1-yl)-N-[(3-nitro-4-{[(3R)-tetrahydro-2H-pyran-3-ylmethyl]amino}phenyl)sulfonyl]-2-(1H-pyrrolo[2,3-b]pyridin-5-yloxy)benzamide] showed an inhibition constant Ki of less than 0.01 nM.
`O=C(NS(=O)(=O)c1ccc(NCCCN2CCOCC2)c([N+](=O)[O-])c1)c1ccc(N2CCN(Cc3ccccc3-c3ccc(Cl)cc3)CC2)cc1Oc1cnc2[nH]ccc2c1` [Compound 2, 4-{4-[(4′-chloro-1,1′-biphenyl-2-yl)methyl]piperazin-1-yl}-N-({4-[(3-morpholin-4-ylpropyl)amino]-3-nitrophenyl}sulfonyl)-2-(1H-pyrrolo[2,3-b]pyridin-5-yloxy)benzamide] came in with a Ki of less than 0.01 nM.
In the case of `CC1(C)CCC(CN2CCN(c3ccc(C(=O)NS(=O)(=O)c4ccc(OC[C@H]5CCN(C6COC6)C5)c([N+](=O)[O-])c4)c(Oc4cnc5[nH]ccc5c4)c3)CC2)=C(c2ccc(Cl)cc2)C1` [Compound 184, 4-(4-{[2-(4-chlorophenyl)-4,4-dimethylcyclohex-1-en-1-yl]methyl}piperazin-1-yl)-N-[(3-nitro-4-{[(3S)-1-oxetan-3-ylpyrrolidin-3-yl]methoxy}phenyl)sulfonyl]-2-(1H-pyrrolo[2,3-b]pyridin-5-yloxy)benzamide] it was less than 0.01 nM.
In the case of `CC1(C)CCC(CN2CCN(c3ccc(C(=O)NS(=O)(=O)c4ccc(N[C@H]5CC[C@@H](NC6CC6)CC5)c([N+](=O)[O-])c4)c(Oc4cnc5[nH]ccc5c4)c3)CC2)=C(c2ccc(Cl)cc2)C1` [Compound 122, cis-4-(4-{[2-(4-chlorophenyl)-4,4-dimethylcyclohex-1-en-1-yl]methyl}piperazin-1-yl)-N-[(4-{[4-(cyclopropylamino)cyclohexyll]amino}-3-nitrophenyl)sulfonyll]-2-(1H-pyrrolo[2,3-b]pyridin-5-yloxy)benzamide] it was less than 0.01 nM; in that of `CC1(C)CCC(CN2CCN(c3ccc(C(=O)NS(=O)(=O)c4ccc(NC[C@H]5CN(C6CC6)CCO5)c([N+](=O)[O-])c4)c(Oc4cnc5[nH]ccc5c4)c3)CC2)=C(c2ccc(Cl)cc2)C1` [Compound 327, 4-(4-{[2-(4-chlorophenyl)-4,4-dimethylcyclohex-1-en-1-yl]methyl}piperazin-1-yl)-N-{[4-({[(2S)-4-cyclopropylmorpholin-2-yl]methyl}amino)-3-nitrophenyl]sulfonyl}-2-(1H-pyrrolo[2,3-b]pyridin-5-yloxy)benzamide], less than 0.01 nM.
In the case of `CC1(C)CCC(CN2CCN(c3ccc(C(=O)NS(=O)(=O)c4ccc(N[C@@H]5CCN(C6CCOC(C)(C)C6)C5)c([N+](=O)[O-])c4)c(Oc4cnc5[nH]ccc5c4)c3)CC2)=C(c2ccc(Cl)cc2)C1` (stereo partly drawn) [Compound 131, 4-(4-{[2-(4-chlorophenyl)-4,4-dimethylcyclohex-1-en-1-yl]methyl}piperazin-1-yl)-N-[(4-{[(3R)-1-(2,2-dimethyltetrahydro-2H-pyran-4-yl)pyrrolidin-3-yl]amino}-3-nitrophenyl)sulfonyl]-2-(1H-pyrrolo[2,3-b]pyridin-5-yloxy)benzamide] it was less than 0.01 nM; in that of `CC1(C)CCC(CN2CCN(c3ccc(C(=O)NS(=O)(=O)c4ccc(NCC5COCCO5)c([N+](=O)[O-])c4)c(Oc4cnc5[nH]ccc5c4)c3)CC2)=C(c2ccc(Cl)cc2)C1` (stereo not shown) [Compound 25, 4-(4-{[2-(4-chlorophenyl)-4,4-dimethylcyclohex-1-en-1-yl]methyl}piperazin-1-yl)-N-({4-[(1,4-dioxan-2-ylmethyl)amino]-3-nitrophenyl}sulfonyl)-2-(1H-pyrrolo[2,3-b]pyridin-5-yloxy)benzamide], less than 0.01 nM; in that of `CC1(C)CCC(c2ccc(Cl)cc2)=C(CN2CCN(c3ccc(C(=O)NS(=O)(=O)c4ccc(NCC5CCOCC5)c([N+](=O)[O-])c4)c(Oc4cnc5[nH]ccc5c4)c3)CC2)C1` [Compound 75, 4-(4-{[2-(4-chlorophenyl)-5,5-dimethylcyclohex-1-en-1-yl]methyl}piperazin-1-yl)-N-({3-nitro-4-[(tetrahydro-2H-pyran-4-ylmethyl)amino]phenyl}sulfonyl)-2-(1H-pyrrolo[2,3-b]pyridin-5-yloxy)benzamide], less than 0.01 nM.
For the molecule `CC1(C)CC(c2ccc(Cl)cc2)=C(CN2CCN(c3ccc(C(=O)NS(=O)(=O)c4cnc(OCC5CCOCC5)c(Cl)c4)c(Oc4cnc5[nH]ccc5c4)c3)CC2)CO1` [Compound 41, 4-(4-{[4-(4-chlorophenyl)-6,6-dimethyl-5,6-dihydro-2H-pyran-3-yl]methyl}piperazin-1-yl)-N-{[5-chloro-6-(tetrahydro-2H-pyran-4-ylmethoxy)pyridin-3-yl]sulfonyl}-2-(1H-pyrrolo[2,3-b]pyridin-5-yloxy)benzamide], the inhibition constant Ki is less than 0.01 nM.
With `CN1CCC(Nc2ccc(S(=O)(=O)NC(=O)c3ccc(N4CCN(CC5=C(c6ccc(Cl)cc6)CC(C)(C)OC5)CC4)cc3Oc3cnc4[nH]ccc4c3)cc2S(=O)(=O)C(F)(F)F)CC1` [Compound 45, 4-(4-{[4-(4-chlorophenyl)-6,6-dimethyl-5,6-dihydro-2H-pyran-3-yl]methyl}piperazin-1-yl)-N-({4-[(1-methylpiperidin-4-yl)amino]-3-[(trifluoromethyl)sulfonyl]phenyl}sulfonyl)-2-(1H-pyrrolo[2,3-b]pyridin-5-yloxy)benzamide] the figure was less than 0.01 nM; with `CC1(C)CCC(CN2CCN(c3ccc(C(=O)NS(=O)(=O)c4ccc(NC[C@H]5CCN(C6COC6)C5)c([N+](=O)[O-])c4)c(Oc4cnc5[nH]ccc5c4)c3)CC2)=C(c2ccc(Cl)cc2)C1` [Compound 195, 4-(4-{[2-(4-chlorophenyl)-4,4-dimethylcyclohex-1-en-1-yl]methyl}piperazin-1-yl)-N-{[3-nitro-4-({[(3R)-1-oxetan-3-ylpyrrolidin-3-yl]methyl}amino)phenyl]sulfonyl}-2-(1H-pyrrolo[2,3-b]pyridin-5-yloxy)benzamide], less than 0.01 nM; with `CC1(C)CCC(CN2CCN(c3ccc(C(=O)NS(=O)(=O)c4cnc(OCC5CCOCC5)c(Cl)c4)c(Oc4cnc5[nH]ccc5c4)c3)CC2)=C(c2ccc(Cl)cc2)C1` [Compound 40, 4-(4-{[2-(4-chlorophenyl)-4,4-dimethylcyclohex-1-en-1-yl]methyl}piperazin-1-yl)-N-{[5-chloro-6-(tetrahydro-2H-pyran-4-ylmethoxy)pyridin-3-yl]sulfonyl}-2-(1H-pyrrolo[2,3-b]pyridin-5-yloxy)benzamide], less than 0.01 nM.
With `CC1(C)CCC(CN2CCN(c3ccc(C(=O)NS(=O)(=O)c4ccc(N[C@@H]5CCN(C6CCOCC6)C5)c([N+](=O)[O-])c4)c(Oc4cnc5[nH]ccc5c4)c3)CC2)=C(c2ccc(Cl)cc2)C1` [Compound 130, 4-(4-{[2-(4-chlorophenyl)-4,4-dimethylcyclohex-1-en-1-yl]methyl}piperazin-1-yl)-N-[(3-nitro-4-{[(3R)-1-tetrahydro-2H-pyran-4-ylpyrrolidin-3-yl]amino}phenyl)sulfonyl]-2-(1H-pyrrolo[2,3-b]pyridin-5-yloxy)benzamide] the figure was less than 0.01 nM.

The record behind these values is US10213433B2 (AbbVie Inc., priority 2010, dated 2019).
